Data reported in the supplement of paper PMC10307832.

How the values were obtained:
Experiment in all cases: relative viability (nuclei count vs DMSO), 5 days (fraction); higher = more cells survive
[1] = compound: CC(C)=CC[C@@H](O)C1=CC(=O)c2c(O)ccc(O)c2C1=O [Shikonin] + CC(C)C[C@H](NC(=O)[C@H](Cc1ccccc1)NC(=O)c1cnccn1)B(O)O [Bortezomib] (partner 0.002 µM)
Outline: (§1)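 Nuclei were stained with Hoechst during a one-step fixation (final 0.05% Triton X-100, 1% formaldehyde, 1 ug/ml Hoechst) carried out 5 days after dosing, then counted on 4× images. The cells, lung cancer lines in 1536-well plates, had been dosed by pin tool the day after seeding with one drug alone or a fixed anchor-drug dose plus five library-drug doses (not always all listed) in √10 steps. Relative viability is the nuclei count in treated wells divided by that in vehicle wells, and each value is the median of duplicate plates.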

[2] = compound: CC(C)=CC[C@@H](O)C1=CC(=O)c2c(O)ccc(O)c2C1=O [Shikonin] + Cc1nc(Nc2ncc(C(=O)Nc3c(C)cccc3Cl)s2)cc(N2CCN(CCO)CC2)n1 [Dasatinib] (partner 0.075 µM)
Outline: as §1

[3] = compound: CC(C)N(CCCNC(=O)Nc1ccc(C(C)(C)C)cc1)C[C@H]1O[C@@H](n2ccc3c(N)ncnc32)[C@H](O)[C@@H]1O + CC(=O)Nc1cccc(-n2c(=O)n(C3CC3)c(=O)c3c(Nc4ccc(I)cc4F)n(C)c(=O)c(C)c32)c1 [Trametinib] (partner 0.02 µM)
Outline: as §1

[4] = compound: CC(C)N(CCCNC(=O)Nc1ccc(C(C)(C)C)cc1)C[C@H]1O[C@@H](n2ccc3c(N)ncnc32)[C@H](O)[C@@H]1O + COc1cc2c(Oc3ccc(NC(=O)C4(C(=O)Nc5ccc(F)cc5)CC4)cc3F)ccnc2cc1OCCCN1CCOCC1 [Foretinib] (partner 0.25 µM)
Outline: as §1

Cell Line	relative viability ([1]; first compound 0.01 µM)	relative viability ([1]; first compound 0.1 µM)	relative viability ([1]; first compound 0.3162 µM)	relative viability ([1]; first compound 1 µM)	relative viability ([2]; first compound 0.01 µM)	relative viability ([2]; first compound 0.1 µM)	relative viability ([2]; first compound 0.3162 µM)	relative viability ([2]; first compound 1 µM)	relative viability ([3]; first compound 0.08 µM)	relative viability ([3]; first compound 0.253 µM)	relative viability ([3]; first compound 0.8 µM)	relative viability ([3]; first compound 2.53 µM)	relative viability ([3]; first compound 8 µM)	relative viability ([4]; first compound 0.08 µM)	relative viability ([4]; first compound 0.253 µM)	relative viability ([4]; first compound 0.8 µM)	relative viability ([4]; first compound 2.53 µM)	relative viability ([4]; first compound 8 µM)
NCI-H1975	0.273	0.365	0.452	0.363	0.354	0.344	0.344	0.359	0.347	0.29	0.167	0.308	0.32	0.853	0.916	0.871	0.707	0.765
CAL-12T	0.898	1.05	1.01	1.17	0.557	0.333	0.356	0.302	0.346	0.345	0.362	0.323	0.306	1.2	1.06	1.07	1.2	0.944
NCI-H1623					0.475	0.541	0.569	0.635						0.836	0.952	0.795	0.83	0.801
HCC-44	0.946	0.99	0.864	0.933					1.11	1.09	0.936	1.11	1.18					
NCI-H1944					0.193	0.247	0.196	0.158	0.362	0.39	0.372	0.439	0.448	0.811	0.88	0.958	0.919	0.882
NCI-H1703	0.302	0.361	0.23	0.114										0.294	0.33		0.403	0.401
Calu-6	1.1	1.2	0.878	0.674										0.847	0.872	0.923	0.839	0.823
EBC-1	0.604	0.48	0.644	0.526										0.108	0.098	0.1	0.0973	0.121
NCI-H358					0.145	0.189	0.148	0.157	0.135	0.137	0.132	0.13	0.138	0.548	0.63	0.67	0.662	0.58
IA-LM	0.715	0.769	1.04	0.876										1.01	1.28	1.14	1.2	0.99
NCI-H1793					0.419	0.376	0.381	0.461	0.394		0.367	0.446	0.422	0.709		0.677	0.606	0.621
NCI-H1792	1.14	0.858	1.12	1.04	0.91	0.6	0.934	1.01	0.397		0.372	0.419	0.29					
NCI-H2342					0.334	0.314	0.295	0.325	0.781	0.81	0.692	0.656	0.826	0.931	0.9	0.9	1.21	1
NCI-H1299	1.03	1.03	1.05	1.03										1.05	1.08	1.08	1.1	1.01
SW 900					0.5	0.592	0.545	0.634	0.734	0.78		0.766	0.717	0.737	0.893		1.09	0.952
SK-MES-1					0.26	0.453	0.323	0.375	0.537	0.63	0.589	0.553	0.537	0.792	0.848	0.881	1	0.804
NCI-H1648									0.424	0.522	0.406	0.419	0.455					
NCI-H522					0.901	0.852	1.04	1.16	0.633	0.763	0.824	0.798	0.845					
LK-2					0.273	0.258	0.228	0.267	0.879	0.493	0.681	0.636	0.694	1.36	0.816	1.36	1.2	1.44
NCI-H1395					0.376	0.403	0.45	0.449	0.956	0.986	0.979	1.01	1.04	0.957	0.839	0.909	0.967	0.853
A549														0.939	1.06	1.05	0.522	0.885
NCI-H2170					0.611	0.465	0.651	0.54	0.965	0.912	0.862	0.866	0.914	0.967	0.987	0.995	0.992	0.977
NCI-H1563	0.824	0.909	0.757	0.607	0.379	0.435	0.467	0.458						0.952	0.975	0.988	0.957	0.931
ABC-1	0.279	0.31	0.274	0.254	0.603	0.685	0.552	0.301						0.92	1		1.41	1.07
